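Method: 48-hour compound exposure of cells in 96-well plates, five concentrations, linear interpolation of endpoints. TGI denotes the concentration required for complete inhibition of growth.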
Legend:
Assay in all cases: NCI anticancer screen, dose series, 48 h
[1] = test system: SNB-75 CNS
[2] = test system: DLD-1 colon
[3] = test system: SNB-19 CNS
[4] = test system: OVCAR-4 ovarian
[5] = test system: KM12 colon
[6] = test system: U251 CNS
[7] = test system: HL-60(TB) leukemia
[8] = test system: SF-268 CNS
[9] = test system: M19-MEL melanoma
[10] = test system: LOX IMVI melanoma
[11] = test system: CCRF-CEM leukemia
[12] = test system: KM20L2 colon
[13] = test system: NCI-H460 lung
[14] = test system: RXF 393 renal
[15] = test system: HT29 colon
[16] = test system: OVCAR-8 ovarian
[17] = test system: SK-OV-3 ovarian
[18] = test system: K-562 leukemia
[19] = test system: UACC-62 melanoma
[20] = test system: NCI-H23 lung
[21] = test system: TK-10 renal
[22] = test system: UACC-257 melanoma
[23] = test system: OVCAR-3 ovarian
[24] = test system: RPMI-8226 leukemia
[25] = test system: OVCAR-5 ovarian
[26] = test system: 786-0 renal
[27] = test system: NCI-H522 lung
[28] = test system: UO-31 renal
[29] = test system: HOP-62 NSCLC
[30] = test system: SK-MEL-28 melanoma
[31] = test system: SF-295 CNS
[32] = test system: DMS 114 small cell lung
[33] = test system: CAKI-1 renal
[34] = test system: MALME-3M melanoma
[35] = test system: A498 renal
[36] = test system: ACHN renal
[37] = test system: HCT-15 colon
[38] = test system: DMS 273 small cell lung
[39] = test system: IGROV1 ovarian
[40] = test system: SF-539 CNS
[41] = test system: SK-MEL-5 melanoma
[42] = test system: A549 NSCLC
[43] = test system: HCC-2998 colon
[44] = test system: HOP-92 NSCLC
[45] = test system: SW-620 colon
[46] = test system: SNB-78 CNS
[47] = test system: COLO 205 colon
[48] = test system: MOLT-4 leukemia
[49] = test system: M14 melanoma
[50] = test system: SK-MEL-2 melanoma
[51] = test system: SN12C renal
[52] = test system: NCI-H226 lung
[53] = test system: EKVX NSCLC
[54] = test system: HCT-116 colon
[55] = test system: SR leukemia
[56] = test system: LXFL 529 NSCLC
[57] = test system: XF 498 CNS

Cc1ccc(S(=O)(=O)N(/N=C/C=C/c2ccccc2)c2nnc(-c3ccccc3)c(-c3ccccc3)n2)cc1
TGI [1]: 69 µM
TGI [2]: > 100 µM
TGI [3]: > 100 µM
TGI [4]: > 100 µM
TGI [5]: > 100 µM
TGI [6]: > 100 µM
TGI [7]: 50.4 µM
TGI [8]: 96.9 µM
TGI [9]: 78.3 µM
TGI [10]: 51.3 µM
TGI [11]: > 100 µM
TGI [12]: 40.5 µM
TGI [13]: > 100 µM
TGI [14]: 60.7 µM
TGI [15]: 23 µM
TGI [16]: > 100 µM
TGI [17]: 75.1 µM
TGI [18]: 80 µM
TGI [19]: > 100 µM
TGI [20]: 66.8 µM
TGI [21]: 76.9 µM
TGI [22]: 98.7 µM
TGI [23]: 88.6 µM
TGI [24]: 40.3 µM
TGI [25]: > 100 µM
TGI [26]: 74.3 µM
TGI [27]: 51.9 µM
TGI [28]: 23.4 µM
TGI [29]: 48.9 µM
TGI [30]: 78.4 µM
TGI [31]: 64.3 µM
TGI [32]: 54.1 µM
TGI [33]: 57 µM
TGI [34]: > 100 µM
TGI [35]: > 100 µM
TGI [36]: > 100 µM
TGI [37]: > 100 µM
TGI [38]: 66.9 µM
TGI [39]: > 100 µM
TGI [40]: 33 µM
TGI [41]: 35.1 µM
TGI [42]: 94.4 µM
TGI [43]: 29.5 µM
TGI [44]: 47.4 µM
TGI [45]: > 100 µM
TGI [46]: > 100 µM
TGI [47]: 36.1 µM
TGI [48]: 76.5 µM
TGI [49]: 49.4 µM
TGI [50]: 47.8 µM
TGI [51]: > 100 µM
TGI [52]: 55.6 µM
TGI [53]: > 100 µM

CCC1=C(CC)C1(C#N)[N+](=O)[O-]
TGI [2]: > 100 µM
TGI [3]: > 100 µM
TGI [4]: > 100 µM
TGI [5]: > 100 µM
TGI [6]: > 100 µM
TGI [7]: > 100 µM
TGI [8]: > 100 µM
TGI [9]: > 100 µM
TGI [10]: > 100 µM
TGI [11]: > 100 µM
TGI [12]: > 100 µM
TGI [13]: > 100 µM
TGI [15]: > 100 µM
TGI [54]: > 100 µM
TGI [16]: > 100 µM
TGI [17]: > 100 µM
TGI [18]: > 100 µM
TGI [19]: > 100 µM
TGI [20]: > 100 µM
TGI [21]: > 100 µM
TGI [22]: > 100 µM
TGI [23]: > 100 µM
TGI [24]: > 100 µM
TGI [25]: > 100 µM
TGI [26]: > 100 µM
TGI [27]: > 100 µM
TGI [28]: > 100 µM
TGI [29]: > 100 µM
TGI [31]: > 100 µM
TGI [32]: > 100 µM
TGI [33]: > 100 µM
TGI [34]: > 100 µM
TGI [35]: > 100 µM
TGI [55]: > 100 µM
TGI [36]: > 100 µM
TGI [37]: > 100 µM
TGI [38]: > 100 µM
TGI [39]: > 100 µM
TGI [40]: > 100 µM
TGI [41]: > 100 µM
TGI [42]: > 100 µM
TGI [56]: > 100 µM
TGI [45]: > 100 µM
TGI [46]: > 100 µM
TGI [47]: > 100 µM
TGI [48]: > 100 µM
TGI [49]: > 100 µM
TGI [50]: > 100 µM
TGI [51]: > 100 µM
TGI [52]: > 100 µM
TGI [53]: > 100 µM

CCc1ccccc1NC(=O)C1=C(C)NC(C)=C(C(=O)Nc2c(CC)cccc2CC)C1c1ccc2c(c1)OCO2 (stereo unspecified)
TGI [1]: > 100 µM
TGI [2]: 51.3 µM
TGI [3]: 76.6 µM
TGI [4]: 35.9 µM
TGI [5]: 30.5 µM
TGI [6]: 30 µM
TGI [7]: 58.4 µM
TGI [8]: 57.6 µM
TGI [9]: 54.7 µM
TGI [10]: 35.1 µM
TGI [11]: 51.4 µM
TGI [12]: 39.3 µM
TGI [13]: 33.8 µM
TGI [14]: 25.4 µM
TGI [15]: 32.2 µM
TGI [54]: 30.6 µM
TGI [16]: 84.5 µM
TGI [17]: > 100 µM
TGI [18]: 58.7 µM
TGI [20]: 31.2 µM
TGI [21]: 53.5 µM
TGI [22]: 35.4 µM
TGI [23]: 38.4 µM
TGI [24]: 41.3 µM
TGI [25]: 36.1 µM
TGI [26]: 34.8 µM
TGI [27]: 30.9 µM
TGI [28]: 29.8 µM
TGI [29]: 35 µM
TGI [30]: 36.6 µM
TGI [31]: 48.5 µM
TGI [32]: 53.5 µM
TGI [33]: 39.7 µM
TGI [34]: 32.5 µM
TGI [36]: 35.1 µM
TGI [39]: 94.7 µM
TGI [40]: 40.4 µM
TGI [41]: 28.5 µM
TGI [57]: 47.5 µM
TGI [42]: 39.2 µM
TGI [56]: 33 µM
TGI [43]: 30.2 µM
TGI [44]: 36.4 µM
TGI [45]: 43.2 µM
TGI [46]: 81.7 µM
TGI [47]: 44.1 µM
TGI [48]: 57.5 µM
TGI [49]: 33.5 µM
TGI [50]: 29.5 µM
TGI [51]: 74.3 µM
TGI [52]: 43.4 µM
TGI [53]: 69.4 µM

Source: PubChem BioAssay (NCI)
